# Results reported in patent publication US12285464B2, “Therapeutic targets involved in the progression of nonalcoholic steatohepatitis (NASH)” (The Trustees of Columbia University in the City of New York, priority 2016, dated 2025).
# “Also recorded” adds a separate entry of the source.
# How the values were obtained:
# [1] = system: PCSK9; details: modified stable siRNA, clinical trials; cited from earlier work
# [2] = system: Taz; test: siTaz treatment of AML12 hepatocytes (Ihh mRNA, immunoblot, ELISA); assay type: cell-based, mouse
# Text: To explore the possibility that TAZ-induced Ihh is secreted by hepatocytes and activates HSCs, an in vitro model using AML12 cells, a non-cancerous mouse hepatocyte cell line was utilized (Dumenco et al., 1995), along with primary murine HSCs. Consistent with the in vivo data, siTaz treatment of AML12 hepatocytes lowered cellular Ihh mRNA in the cells and Ihh protein in both the cells and media (FIGS. 8A-C). In the next experiments, conditioned medium (CM) from control or Taz-silenced AML12 cells was utilized, as well as medium not exposed to cells (non-CM), to primary murine hepatic stellate cells (HSCs). […] Most importantly, CM from TAZ-silenced hepatocytes lowered the levels these mRNAs and protein compared to CM from shCon-treated hepatocytes (FIG. 8D). […] Finally, to make a more direct link between TAZ-induced Ihh in hepatocytes and activation of HSCs, Ihh was restored in siTaz-treated hepatocytes by Ihh transfection and then analyzed to determine whether this lessened the suppressive effect of CM from these cells on the expression of the fibrosis-related genes in HSCs. Transfection of TAZ-silenced hepatocytes with Ihh led to a level of Ihh in the CM that was similar to that in the CM of control hepatocytes (FIG. 8F—compare 1st and 4th bars). As before, the CM of TAZ-silenced hepatocytes suppressed Opn, Timp1 and Col1a1 mRNA in HSCs (FIG. 8G—compare 2nd and 4th bars), and the present results illustrate that restoration of Ihh in these TAZ-silenced cells rescued CM-induced HSC gene expression (FIG. 8G—compare 4th and 5th bars).
# AML12 mouse hepatocytes were purchased from ATCC (CRL-2254) and cultured in DMEM/F12 medium (Lifetechnologies, #11320) with 10% FBS (Gibco, #16140-071). Hepatic stellate cells (HSCs) were isolated from 5-6 mo/o BALB/C mice as described previously (Mederacke et al., 2015). […] For quantification of Ihh, hepatocyte conditioned medium was concentrated 10-fold by centrifugal filters (Millipore, Ultracel) and analyzed by an ELISA kit (LifeSpan Biosciences, F7953). […]
# [3] = system: primary murine hepatic stellate cells (HSCs); test: Conditioned medium transfer from silenced AML12 hepatocytes to primary hepatic stellate cells; assay type: cell-based, mouse; details: CM from TAZ-silenced vs control hepatocytes, 72 h
# Text: To explore the possibility that TAZ-induced Ihh is secreted by hepatocytes and activates HSCs, an in vitro model using AML12 cells, a non-cancerous mouse hepatocyte cell line was utilized (Dumenco et al., 1995), along with primary murine HSCs. Consistent with the in vivo data, siTaz treatment of AML12 hepatocytes lowered cellular Ihh mRNA in the cells and Ihh protein in both the cells and media (FIGS. 8A-C). In the next experiments, conditioned medium (CM) from control or Taz-silenced AML12 cells was utilized, as well as medium not exposed to cells (non-CM), to primary murine hepatic stellate cells (HSCs). […] Finally, to make a more direct link between TAZ-induced Ihh in hepatocytes and activation of HSCs, Ihh was restored in siTaz-treated hepatocytes by Ihh transfection and then analyzed to determine whether this lessened the suppressive effect of CM from these cells on the expression of the fibrosis-related genes in HSCs. […]
# AML12 mouse hepatocytes were purchased from ATCC (CRL-2254) and cultured in DMEM/F12 medium (Lifetechnologies, #11320) with 10% FBS (Gibco, #16140-071). […] For quantification of Ihh, hepatocyte conditioned medium was concentrated 10-fold by centrifugal filters (Millipore, Ultracel) and analyzed by an ELISA kit (LifeSpan Biosciences, F7953).
# [4] = system: TAZ; test: TAZ silencing with AAV8-shTaz in FPC-fed C57BL/6J mice, FPC diet for 16 weeks; assay type: in vivo; details: FPC diet 16 weeks
# Protocol: (§1) To study TAZ function in NASH development, FPC mice were treated with AAV8-shTaz vs. AAV8-control RNA. […] Mouse body weight, liver:body weight ratio, fasting blood glucose, plasma insulin, and plasma cholesterol were similar in the Taz shRNA and control groups.
# The following antibodies were used for immunoblots: GAPDH (#3683), β-actin (#5125), CHOP (#5554), TAZ (#8418), p-eIF2α (#3398), eIF2α (#5324), Lamin A/C (#4777) from Cell Signaling; p-TAZ (sc-17610) and Col1a1 (sc-8784) from Santa Cruz; Ihh (ab39634) from Abcam; and Timp1 (AF980) from R & D. The following antibodies were using for immunostaining of liver: α-SMA (ACTA2) (C6198, F3777) and TAZ (HPA007415) from Sigma; F4/80 (MCA497GA) from AbD Serotec; Ly6g (#127601) from Biolegend; Ly6b (MCA771G) from Bio-Rad; OPN (AF808) from R & D; 4-hydroxynonenal (4-HNE) (AB5605) from Millipore; and HNF4α (sc-6556) from. Santa Cruz. The following plasma assay kits were used in this study: insulin ELISA (#90080) from. Crystal Chem; MCP1 ELISA (#88-7391-22) from eBiosciences; cholesterol (#439-17501) and triglyceride (#465-09791, #461-09891) from Wako; and ALT (#006A-CR) and AST (#004A-CR) from BQ Kits, Inc. AAV8-shRNA targeting murine Taz was made by annealing complementary oligonucleotides (5′-CACCAcagcegaatctcgcaatgaatCTCGAGATTCATTGCGAG ATTCGGCTG-3′) (SEQ ID NO:1), which were then ligated into the pAAV-RSV-GFP-H1 vector, as described previously (Lisowski et al., 2014). The resultant constructs were amplified by the Salk Institute Gene Transfer, Targeting, and Therapeutics Core.
# (§2) Male wild-type mice C57BL/6J (#000664, 8-10 weeks/old) and MC4R-negative loxTB Mc4r mice (#006414, 6 weeks/old), referred to here as Mc4r^-/- mice, were obtained from Jackson Laboratory (Bar Harbor, ME) and were allowed to adapt to housing in the Columbia University Medical Center Institute of Comparative Medicine for 1 week prior to random assignment to experimental cohorts. The mice were then fed the following diets for the times indicated in the figure legends: (a) chow diet (Picolab rodent diet 20, #5053); (b) “fast-food” (FF). diet (TestDiet 1810060): high-fat diet with drinking water containing 42 g/L glucose and fructose (55%/45%, w/w); or (c) fructose-palmitate-cholesterol (“FPC”) diet (Teklad, TD.140154): similar to FF diet but with 1.25% added cholesterol and with palmitic acid, anhydrous milk fat, and Primex as the sources of fat and with a ˜60% decrease in vitamin E and a ˜35% decrease in choline compared with typical mouse diets. The detailed composition of these diets appear in Tables 1 and 2. For several experiments, groups of mice were placed on a methionine-choline-deficient diet (Teklad, TD. 90262) for 8 weeks, as described (Dixon et al., 2012). Adeno-associated virus (2×10^11 genome copy/mouse) was delivered by tail vein injection either 1 week prior to diet initiation or after 8 weeks of the FPC diet. Animals were housed in standard cages at 22° C. in a 12-12-h light-dark cycle. All animal experiments were performed in accordance with institutional guidelines and regulations and approved by the Institutional Animal Care and Use Committee at Columbia University.
# Fasting blood glucose was measured using a glucose meter (One Touch Ultra, Life-scan) in mice that were fasted for 4-5 h, with free access to water. Complete blood counts were obtained with the FORCYTE Veterinary Hematology Analyzer (Oxford Science, Inc.). Total plasma triglyceride and cholesterol were assayed using a commercially available kit from Wako. For insulin, MCP1, AST, ALT, TC, TG are measured following kit instruction by using plasma.
# Formalin-fixed, paraffin-embedded liver sections were stained with hematoxylin and eosin (H&E) and evaluated for severity of NAFLD by a trained hepatopathologist blinded to the clinical diagnosis, αaccording to criteria described by Brunt et al. (Kleiner et al., 2005; Liang et al., 2014). […]
# [5] = system: TAZ; test: TAZ silencing with AAV8-shTaz in FPC-fed hyperphagic Mc4r-/- mice, 16 weeks; assay type: in vivo; details: FPC diet 16 wks
# Protocol: as §1, §2
# Formalin-fixed, paraffin-embedded liver sections were stained with hematoxylin and eosin (H&E) and evaluated for severity of NAFLD by a trained hepatopathologist blinded to the clinical diagnosis, αaccording to criteria described by Brunt et al. (Kleiner et al., 2005; Liang et al., 2014). Liver fibrosis was assessed by Picrosirius (Sirius) red (Polysciences, #24901) or by Masson's trichrome staining (Sigma, HT15), with aniline blue-positive areas quantified as a measure of collagen content in the trichrome-stained. sections. TUNEL staining was conducted using a kit from Roche (#12156792910). For immunofluorescence microscsopy, paraffin sections were rehydrated, subjected to antigen retrieval by placing in a pressure cooker for 10 mins in Target Retrieval Solution (Dako, S1699), and then blocked with serum. Sections were labeled with primary antibodies overnight, using a 1:150 dilution except for α-SMA and 4-HNE (1:200) and TAZ (1:400), followed by incubation with a fluorophore-conjugated secondary antibody for 1 h. The stained sections were mounted with DAPI-containing mounting medium (Life Technologies, P36935) and then viewed on an Olympus IX 70 fluorescence microscope. For filipin (Sigma, F9765) staining, frozen sections were fixed in 4% paraformaldehyde for 1 h at room temperature, then rinsed using glycine/PBS and stained 0.25 mg/ml filipin 2 h at room temperature. Fluorescence microscopic images were analyzed using ImageJ software. For immunohistochemistry, the deparaffinization, rehydration, and antigen retrieval processes were the same as with immunofluorescence staining. The slides were treated with 3% hydrogen peroxide for 10 min and then blocked with Serum-Free Protein Block (Dako, X0909) for 30 min. Sections were incubated with OPN, F4/80, or α-SMA primary antibody (1:100) overnight and then developed using DAB substrate kit (Cell Signaling, #8059) for OPN and F4/80,FITC-labeled anti-HRP secondary antibody for α-SMA.
# Hydroxyproline liver content was measured as previously described (Bataller et al., 2003; Seki et al., 2009). […]
# [6] = system: TAZ; test: TAZ silencing after development of steatosis: AAV8-shTaz at week 8 of 16 weeks of FPC diet; assay type: in vivo, mice; details: shTaz at week 8, read at 16 weeks of FPC diet
# Text: To investigate the role of TAZ specifically in steatosis-to-NASH conversion, mice were first fed the FPC diet for 8 weeks and then injected with AA8-shTaz or control virus, followed by an additional 8 weeks on the diet. Note that 8 weeks of FPC diet caused steatosis but no appreciable inflammation or fibrosis (FIG. 6A).
# as §2
# [7] = system: TAZ; test: shTaz in the MCD (methionine/choline-deficient) diet model; assay type: in vivo, mice
# Text: Thus, in separate models of NASH, hepatic TAZ silencing improved key liver parameters related to inflammation, fibrosis, and cell death without affecting metabolic parameters or steatosis.
# as §2
substance,measurement,setting,value
Inclisiran,toxicity profile,[1],very low toxicity profiles
"siTaz: siRNA against mouse Taz purchased from IDT; target sequence ACAUGGACGAGAUGGAUACAGGUGA (sense ACAUGGACGAGAUGGAUACAGGUGA; purchased from IDT, chemistry not given here; the letters are possibly those of the target site)",cellular Ihh mRNA,[2],lowered
same,Ihh protein in the media,[2]; ELISA,lowered
same,Ihh protein in the cells,[2]; immunoblot,lowered
same,"Opn, Timp1 and Col1a1 mRNAs and protein in HSCs",[3],lowered
"5′-CACCAcagcegaatctcgcaatgaatCTCGAGATTCATTGCGAG ATTCGGCTG-3′ (DNA CACCACAGCCGAATCTCGCAATGAATCTCGAGATTCATTGCGAGATTCGGCTG; expressed or natural sequence) [AAV8-shTaz, AAV8-shRNA targeting murine Taz; annealed oligonucleotides ligated into the pAAV-RSV-GFP-H1 vector]",4-HNE+ liver cells,[4],decrease
same,TUNEL+ liver cells,[4],decrease
same,inflammatory cell infiltration in liver sections,[4],marked reductions
same,plasma ALT,[4],decreased
same,steatosis,[4],not affected
same,hepatic Ihh protein,[4]; immunoblot,suppressed
same,F4/80+ macrophages,[4]; liver,decreases
same,"expression of mRNAs related to fibrosis (Acta2, Timp1, Des, Col1a1, Col1a2, Col3a1, Vim)",[4]; liver,robust reduction
same,"expression of mRNAs related to hepatic inflammation (Tnfa, Mcp1, F4/80 (Adgre1))",[4]; liver,robust reduction
same,α-SMA+ cells,[4]; liver,decreases
same,silencing of TAZ in liver (immunoblot),[4]; vs AAV8-control RNA,robust silencing
same,Mouse body weight,[4]; vs control group,similar
same,fasting blood glucose,[4]; vs control group,similar
same,liver:body weight ratio,[4]; vs control group,similar
same,plasma cholesterol,[4]; vs control group,similar
same,plasma insulin,[4]; vs control group,similar
same,fibrosis endpoints in liver sections,"[4]; aniline blue, Sirius red",marked reductions
same,hydroxyproline content of liver,[5],lower; also recorded: reduced
same,liver inflammation (hepatic inflammatory cells),[5],decreased; also recorded: reduced
same,plasma ALT,[5],reduced
same,staining for Sirius red,[5]; liver,decreased staining
same,staining for aniline blue,[5]; liver,decreased staining
same,staining for α-SMA,[5]; liver,decreased staining
same,F4/80+ macrophages,[6],marked reductions
same,fibrosis endpoints (aniline blue- and Sirius red-positive areas),[6],marked reductions; also recorded: reduced
same,inflammatory cells,[6],marked reductions; also recorded: reduced
same,"inflammatory- and fibrosis-related genes (Tnfa, Mcp1, Tgfb1, Acta2 mRNA)",[6],marked reductions; also recorded: reduced
same,plasma ALT,[6],marked reductions; also recorded: reduced
same,α-SMA+ cells,[6],marked reductions
same,hepatic fibrosis,[7],decreased
same,hepatic inflammation,[7],decreased
same,macrophages in the liver,[7],reduced
same,steatosis,[7],without impacting
same,α-SMA+ cells in the liver,[7],reduced
same,inflammatory and fibrotic gene expression,[7]; liver,reduced
